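Five concentrations, 48 hours, 96-well plates. GI50: concentration for 50% inhibition of growth.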 Activity calls are given as the source filed them. Rule as the data show it: active = GI50 up to about 1.1 µM and inactive = higher.
Tests used:
Experiment in all cases: NCI anticancer screen, dose series, 48 h
IGROV-1 = tested on: IGROV-1
786-0 = tested on: 786-0
K562 = tested on: K562
NCI-H226 = tested on: NCI-H226
CCRF-CEM = tested on: CCRF-CEM
UACC-62 = tested on: UACC-62
SK-OV-3 = tested on: SK-OV-3
SN12C = tested on: SN12C
OVCAR-3 = tested on: OVCAR-3
HCC 2998 = tested on: HCC 2998
SK-MEL-5 = tested on: SK-MEL-5
A549 = tested on: A549
COLO 205 = tested on: COLO 205
M14 = tested on: M14
RXF 393 = tested on: RXF 393
HCT-116 = tested on: HCT-116
HOP-92 = tested on: HOP-92

Measured: GI50

Cc1cc2c(c(C(=O)O)c1C)-c1cccc(F)c1C2=O
inactive: IGROV-1 > 100 µM | 786-0 > 100 µM | K562 > 100 µM | NCI-H226 55.1 µM | CCRF-CEM > 100 µM | UACC-62 > 100 µM | SK-OV-3 > 100 µM | SN12C > 100 µM | OVCAR-3 > 100 µM | HCC 2998 > 100 µM | SK-MEL-5 > 100 µM | A549 > 100 µM | COLO 205 > 100 µM | M14 > 100 µM | RXF 393 66.7 µM

c1ccc(NCn2cnc3ccccc32)cc1
inactive: IGROV-1 > 100 µM | 786-0 > 100 µM | K562 20.8 µM | NCI-H226 > 100 µM | CCRF-CEM 37.1 µM | UACC-62 7.45 µM | SK-OV-3 > 100 µM | SN12C > 100 µM | OVCAR-3 > 100 µM | SK-MEL-5 > 100 µM | A549 > 100 µM | COLO 205 > 100 µM | HCT-116 74.1 µM | RXF 393 > 100 µM

CC(=O)NS(=O)(=O)c1ccc(NC(=O)COC(=O)c2cccc3c(=O)c4ccccc4[nH]c23)cc1
inactive: IGROV-1 > 100 µM | 786-0 > 100 µM | K562 > 100 µM | NCI-H226 > 100 µM | CCRF-CEM > 100 µM | UACC-62 > 100 µM | SK-OV-3 > 100 µM | SN12C > 100 µM | OVCAR-3 92.5 µM | SK-MEL-5 > 100 µM | A549 > 100 µM | COLO 205 > 100 µM | HCT-116 > 100 µM | M14 > 100 µM | RXF 393 > 100 µM

O=C(CSSCC(=O)OCCS(=O)(=O)Nc1ccc(Br)cc1)OCCS(=O)(=O)Nc1ccc(Br)cc1
inactive: IGROV-1 17.3 µM | 786-0 > 10 µM | HOP-92 13.1 µM | K562 10.4 µM | CCRF-CEM 7.66 µM | UACC-62 13 µM | SK-OV-3 18.9 µM | SN12C 18.7 µM | OVCAR-3 13.1 µM | HCC 2998 7.8 µM | SK-MEL-5 11.8 µM | A549 19 µM | COLO 205 11.6 µM | M14 12.8 µM | RXF 393 3.23 µM

CN(C)CC[N+]1=Nc2cccc3cccc(c23)N1
inactive: IGROV-1 61.8 µM | 786-0 55.1 µM | HOP-92 34.2 µM | K562 26.4 µM | NCI-H226 71 µM | CCRF-CEM 27.8 µM | UACC-62 99.8 µM | SK-OV-3 > 100 µM | SN12C 57.9 µM | OVCAR-3 > 100 µM | HCC 2998 > 95.7 µM | SK-MEL-5 > 52.8 µM | A549 44.1 µM | COLO 205 31.2 µM | HCT-116 3.86 µM | M14 > 100 µM

Nc1ccc(C(=O)NN2C(=O)C(Cl)C2c2cccc(O)c2)cc1 (stereo not drawn)
inactive: IGROV-1 14.4 µM | 786-0 13.4 µM | HOP-92 17.4 µM | K562 10.8 µM | NCI-H226 18.5 µM | CCRF-CEM 5.55 µM | UACC-62 14.8 µM | SK-OV-3 19.5 µM | SN12C 17.8 µM | OVCAR-3 15.8 µM | HCC 2998 15.8 µM | SK-MEL-5 17.6 µM | A549 19.8 µM | COLO 205 17.1 µM | HCT-116 4.4 µM | M14 19.4 µM

COC(=O)C1=C(C(=O)OC)C23C=CC=CC24C(C(=O)OC)=C(C(=O)OC)C4C1C3 (stereo not drawn)
inactive: IGROV-1 > 100 µM | 786-0 > 100 µM | HOP-92 > 100 µM | K562 30.5 µM | CCRF-CEM 69.7 µM | UACC-62 56.6 µM | SN12C > 100 µM | OVCAR-3 > 100 µM | HCC 2998 > 100 µM | SK-MEL-5 > 100 µM | A549 > 100 µM | COLO 205 > 100 µM | HCT-116 77.1 µM | M14 > 100 µM | RXF 393 > 100 µM

CCOC(=O)/C(C#N)=C\Sc1ccccc1
inactive: IGROV-1 10.2 µM | 786-0 15.3 µM | HOP-92 37.2 µM | K562 18.3 µM | NCI-H226 16.7 µM | CCRF-CEM 7.83 µM | UACC-62 16.1 µM | SK-OV-3 36.6 µM | SN12C 14 µM | OVCAR-3 17.4 µM | SK-MEL-5 22.3 µM | A549 10.4 µM | COLO 205 20.1 µM | HCT-116 16.8 µM | M14 15.9 µM | RXF 393 16.8 µM

C=C1CC(CC)(CCN2C(=O)c3ccccc3C2=O)OC1=O (stereo not drawn)
inactive: IGROV-1 35.8 µM | 786-0 11.9 µM | K562 20.8 µM | NCI-H226 13.8 µM | CCRF-CEM 7.71 µM | UACC-62 13.3 µM | SN12C 18.6 µM | HCC 2998 17.7 µM | SK-MEL-5 12.9 µM | A549 27.7 µM | COLO 205 16.7 µM | HCT-116 12.6 µM | M14 10.9 µM | RXF 393 15.5 µM

O=C(CC1(O)C(=O)Nc2ccc([N+](=O)[O-])cc21)c1ccncc1 (stereo not drawn)
inactive: 786-0 69.7 µM | K562 20.5 µM | NCI-H226 83 µM | CCRF-CEM 29 µM | UACC-62 29.2 µM | SK-OV-3 > 100 µM | SN12C 43.6 µM | OVCAR-3 25.2 µM | HCC 2998 67 µM | A549 > 100 µM | COLO 205 77.1 µM | HCT-116 30.8 µM | M14 51.6 µM | RXF 393 14.8 µM

Cc1nc2ccccc2c(=O)n1/N=C(\N=N\c1ccc(Cl)cc1)c1cccc(-c2ccco2)c1
inactive: IGROV-1 31.3 µM | 786-0 39.6 µM | HOP-92 16.1 µM | K562 22.3 µM | CCRF-CEM 24.6 µM | UACC-62 22.4 µM | SK-OV-3 30.3 µM | SN12C 29.2 µM | SK-MEL-5 18.9 µM | A549 40.6 µM | COLO 205 31.8 µM | HCT-116 19.1 µM | M14 34.1 µM | RXF 393 20.3 µM

CCCCNc1nc(C#N)c(N)s1
inactive: IGROV-1 > 100 µM | 786-0 > 100 µM | HOP-92 > 100 µM | K562 > 100 µM | NCI-H226 > 100 µM | UACC-62 > 100 µM | SK-OV-3 > 100 µM | SN12C > 100 µM | OVCAR-3 > 100 µM | HCC 2998 > 100 µM | A549 > 100 µM | COLO 205 > 100 µM | HCT-116 > 100 µM | M14 > 100 µM

Cc1cc([N+](=O)[O-])ccc1NC(=O)C(=O)C(C(=O)c1ccccc1-c1ccccc1)C1OC(=O)c2ccccc21 (stereo not drawn)
inactive: IGROV-1 19.6 µM | 786-0 16.1 µM | HOP-92 16.9 µM | K562 25.4 µM | NCI-H226 12.2 µM | CCRF-CEM 22.9 µM | UACC-62 4.11 µM | SK-OV-3 22.7 µM | SN12C 15.8 µM | HCC 2998 15.5 µM | SK-MEL-5 15 µM | A549 10.8 µM | COLO 205 20.8 µM | HCT-116 16 µM | M14 14 µM | RXF 393 4.85 µM

COC(=O)CCC(NC(=S)N/N=C(\C)c1ccco1)C(=O)OC (stereo not drawn)
inactive: IGROV-1 > 100 µM | 786-0 > 100 µM | K562 > 100 µM | NCI-H226 > 100 µM | CCRF-CEM > 100 µM | UACC-62 > 100 µM | SK-OV-3 > 100 µM | SN12C > 100 µM | OVCAR-3 > 100 µM | HCC 2998 > 100 µM | SK-MEL-5 > 100 µM | A549 > 100 µM | COLO 205 > 100 µM | HCT-116 > 100 µM | M14 > 100 µM | RXF 393 > 100 µM

CC(c1ccccc1)C(O)S(=O)(=O)O (stereo not drawn)
inactive: IGROV-1 > 100 µM | 786-0 > 100 µM | HOP-92 > 100 µM | K562 > 10 µM | NCI-H226 > 100 µM | CCRF-CEM > 100 µM | UACC-62 > 100 µM | SK-OV-3 > 100 µM | SN12C > 100 µM | OVCAR-3 > 100 µM | A549 > 100 µM | COLO 205 > 100 µM | HCT-116 > 100 µM | M14 > 100 µM | RXF 393 > 100 µM

NC1C[C@H](n2cc(/C=C/Br)c(=O)[nH]c2=O)C[C@@H]1CO (stereo partly drawn)
inactive: 786-0 > 100 µM | K562 > 100 µM | NCI-H226 > 100 µM | CCRF-CEM > 100 µM | UACC-62 > 100 µM | SK-OV-3 > 100 µM | SN12C > 100 µM | OVCAR-3 > 100 µM | HCC 2998 > 100 µM | COLO 205 > 100 µM | M14 > 100 µM | RXF 393 > 100 µM

CN(C)C(=O)Oc1c(Br)cc(Br)cc1C(=O)OCc1ccccc1
inactive: IGROV-1 28.6 µM | HOP-92 16.8 µM | K562 28.2 µM | NCI-H226 28.7 µM | CCRF-CEM 19.3 µM | UACC-62 15.7 µM | SK-OV-3 44.9 µM | SN12C 20.8 µM | OVCAR-3 19.1 µM | HCC 2998 36.1 µM | SK-MEL-5 13.1 µM | A549 28.1 µM | COLO 205 18.3 µM | HCT-116 14.5 µM | RXF 393 38.4 µM

O=C1c2ccc(O)c(O)c2C(=O)c2c(O)ccc(O)c21 [QUINALIZARIN]
inactive: IGROV-1 38.4 µM | 786-0 26.3 µM | HOP-92 25.4 µM | K562 26.5 µM | NCI-H226 22 µM | CCRF-CEM 20.2 µM | UACC-62 21.4 µM | SK-OV-3 29.7 µM | SN12C 24 µM | OVCAR-3 20.3 µM | HCC 2998 23.3 µM | A549 21.1 µM | COLO 205 22.2 µM | HCT-116 20.6 µM | M14 21.5 µM | RXF 393 26.1 µM

— ChEMBL document CHEMBL1201862, “PubChem BioAssay data set” (2004)
